Columns and labels:
p27^kip1/waf1 [1] = details: cited from earlier work
[2] = test system: hyper-phosphorylated retinoblastoma protein (ppRB); details: cited from earlier work
[3] = test system: normal keratinocytes and EGFR over-expressing tumor cells; details: cited from earlier work
[4] = test system: normal human neonatal epidermal keratinoctyes, NHEK; assay: Flow cytometric measurement of cell cycle arrest (BrdU incorporation / propidium iodide); format: cell-based; details: for % G1 / % G2 / % S: 24 hr, NHEK; for effect on cell cycle phase distribution (in words): keratinocytes treated for 24 hours
Procedure: (§1) The protective effect of KGF on keratinocytes was measured in two types of assays, the first to determine its protective effect on cell cycle phase distribution against a small molecule EGFR inhibitor, and the second to determine its protective effect against ppRB depletion and p27^kip1/waf1 upregulation caused by the EGFR inhibitor. The effect of KGF on cell cycle phase distribution was measured by bivariate analysis of bromodeoxyuridine incorporation and propidium iodide uptake by […] using flow cytometry. The protective effect of KGF against ppRB depletion and p27^kip1/waf1 upregulation was measured by immunoblotting of lysates from treated and control […] cells with antibodies specific for RB and p27^kip1/waf1, respectively. The methods are described in detail below.
(§2) All experiments were carried out with normal human neonatal epidermal keratinoctyes, NHEK (Clonetics, San Diego, Calif.). Cells were maintained in Keratinocyte Growth Medium, KGM-2 (Clonetics). Human recombinant KGF expressed in E. coli as a 19 kDa protein was purchased from Sigma Chemical Co. (St. Louis, Mo.).
NHEK cells were seeded in 60-mm dishes in KGM-2. When the cells were semiconfluent, the medium was replaced with fresh medium containing the test agents: vehicle (0.125% DMSO); vehicle+20 ng/ml KGF; vehicle+0.3 μM CP-358, 774-01+/−20 ng/ml KGF; or vehicle+1 μM CP-358, 774-01+/−20 ng/ml KGF. The cells were incubated at 37° C. in a 5% CO2, humidified atmosphere. After 24 hr, bromodeoxyuridine (BrdU) was added to the medium at a final concentration of 10 μM for 30 min. The cells were then harvested using 0.25% trypsin/1 mM EDTA and counted using a Coulter counter. Aliquots of 2×10^6 cells were collected by centrifugation at 220×g for 5 min, washed in 2 ml phosphate buffered saline (PBS) containing 2.5% fetal calf serum, resuspended in 0.2 ml PBS, and fixed by the addition of 5 ml 70% ethanol at −20° C. After a 30 min incubation on ice, the cells were collected by centrifugation at 500×g for 5 min and resuspended in 25 μl PBS. One ml of 0.2 mg/ml pepsin in 2 N HCI was added and the cells were incubated for 30 min at rm temp. Cells were collected by centrifugation at 1500×g for 5 min and washed with 1 ml 0.1 M sodium borate, pH 8.5. Cells were pelleted at 1500×g for 5 min, resuspended in 1 ml of fluorescein isothiocyanate (FITC)-conjugated anti-BrdU (Becton Dickinson, San Jose, Calif.) diluted fifty-fold in PBS containing 0.5% Tween 20 and 1% bovine serum albumin, and incubated at ambient temperature in the dark for 30 min. After a final wash with PBS with 0.5% Tween 20 and 1% BSA, the cells were resuspended in PBS containing 10 μg/ml propidium iodide and 10 μg/ml RNase, filtered through a 35 µm mesh and analyzed on a FACSCalibur flow cytometer (Becton Dickinson) equipped with an argon laser with an emission wavelength of 488 nm. FITC fluorescence data was acquired at 515-545 nm, and propidium iodide fluorescence data was acquired at […]. A minimum of 20,000 cells was analyzed per sample. Data was analyzed using CellQuest software (Becton-Dickinson) and the percent of cells in each phase (G1, S, G2) of the cell cycle was calculated.

p27^kip1/waf1 [5] = assay: Immunoblot of p27^kip1/waf1 protein level in NHEK lysates; format: cell-based, human; details: 24 hr
Procedure: as §1, §2
(§3) NHEK cells were seeded in 6-well plates and grown until semi-confluent in KGM-2. […] Total protein concentration of the lysates was determined using the BCA protein assay (Pierce Chemicals, Rockford, Ill.). […]

[6] = test system: hyperphosphorylated retinoblastoma protein (ppRB); assay: Immunoblot of hyperphosphorylated RB (ppRB) in NHEK lysates; format: cell-based, human; details: 24 hr
Procedure: as §1, §2, §3

FGFR1iiib receptor = details: cited from earlier work

C#Cc1cccc(Nc2ncnc3cc(OCCOC)c(OCCOC)cc23)c1 [CP-358,774, [6,7-bis(2-methoxy-ethoxy)-quinazolin-4-yl]-(3-ethynylphenyl)amine]
effect on cyclin-dependent kinase inhibitor p27^kip1/waf1 (p27^kip1/waf1 [1]): accumulation | effect on hyper-phosphorylated retinoblastoma protein (ppRB) [2]: causes depletion | cell cycle arrest (accumulation of cells in G1 phase) [3]: causes cell cycle arrest

C#Cc1cccc(Nc2ncnc3cc(OCCOC)c(OCCOC)cc23)c1.Cl [Compound A]
% G1 ([4]; 0.3 μM Compound A): 75% | % G2 ([4]; 0.3 μM Compound A): 11% | % S ([4]; 0.3 μM Compound A): 13% | % G1 ([4]; 1 μM Compound A): 85% | % G2 ([4]; 1 μM Compound A): 10% | % S ([4]; 1 μM Compound A): 6.0% | effect on cell cycle phase distribution (in words) [4]: concentration dependent accumulation of cells in the G1 phase of the cell cycle and a corresponding decrease in the S-phase fraction | induction of p27^kip1/waf1 protein levels (p27^kip1/waf1 [5]; 0.3 μM Compound A): 3.9 fold | induction of p27^kip1/waf1 (p27^kip1/waf1 [5]; 1 μM Compound A): 5.2 fold | ppRB signal on RB immunoblot ([6]; 0.3 μM Compound A): dramatically reduced | ppRB band on RB immunoblot ([6]; 1 μM Compound A): completely abolished

B1: KGF-2: keratinocyte growth factor family member, also known as FGF-10 (protein, UniProt O15520 38-208, looked up)
Fibroblast growth factor 10: QALGQDMVSPEATNSSSSSFSSPSSAGRHVRSYNHLQGDVRWRKLFSFTKYFLKIEKNGKVSGTKKENCPYSILEITSVEIGVVAVKAINSNYYLAMNKKGKLYGSKEFNNDCKLKERIEENGYNTYASFNWQHNGRQMYVALNGKGAPRRGQKTRRKNTSAHFLPMVVHS
binding to FGFR1iiib receptor (FGFR1iiib receptor): high affinity

B2: KGF: Human recombinant KGF expressed in E. coli as a 19 kDa protein, purchased from Sigma Chemical Co. (protein, UniProt P21781 32-194, looked up)
Fibroblast growth factor 7: CNDMTPEQMATNVNCSSPERHTRSYDYMEGGDIRVRRLFCRTQWYLRIDKRGKVKGTQEMKNNYNIMEIRTVAVGIVAIKGVESEFYLAMNKEGKLYAKKECNEDCNFKELILENHYNTYASAKWTHNGGEMFVALNQKGIPVRGKKTKKEQKTAHFLPMAIT
% G1 ([4]; 20 ng/ml KGF alone): 52% | % G2 ([4]; 20 ng/ml KGF alone): 13% | % S ([4]; 20 ng/ml KGF alone): 34% | effect on cell cycle phase distribution (in words) [4]: no significant effect

B3: KGF-1: keratinocyte growth factor family member, also known as FGF-7 (protein, UniProt P21781 32-194, looked up)
Fibroblast growth factor 7: CNDMTPEQMATNVNCSSPERHTRSYDYMEGGDIRVRRLFCRTQWYLRIDKRGKVKGTQEMKNNYNIMEIRTVAVGIVAIKGVESEFYLAMNKEGKLYAKKECNEDCNFKELILENHYNTYASAKWTHNGGEMFVALNQKGIPVRGKKTKKEQKTAHFLPMAIT
binding to FGFR1iiib receptor (FGFR1iiib receptor): high affinity

From US7402557B2, “Combined treatment with keratinocyte growth factor and epidermal growth factor inhibitor” (priority 2000, dated 2008)
